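1) Cells in 96-well plates. 2) Compound, 48 h, 5 concentrations. 3) Linear interpolation between surrounding doses. 4) Unreached endpoint = highest concentration. Abbreviation: GI50, concentration required for 50% inhibition of growth.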 Activity calls are given as the source filed them. Rule as the data show it: active = GI50 up to about 1.1 µM and inactive = higher.
Columns and labels:
Assay in all cases: growth of human tumour cells (NCI), 48 h
A549 = system: A549
BT-549 = system: BT-549
CAKI-1 = system: CAKI-1
HL-60 = system: HL-60
HOP-92 = system: HOP-92
K562 = system: K562
LOX IMVI = system: LOX IMVI
MDA-MB-435 = system: MDA-MB-435
MOLT-4 = system: MOLT-4
Malme-3M = system: Malme-3M
NCI-H460 = system: NCI-H460
OVCAR-5 = system: OVCAR-5
SF-268 = system: SF-268
SK-MEL-2 = system: SK-MEL-2
SN12C = system: SN12C
SW-620 = system: SW-620
U-251 = system: U-251
UO-31 = system: UO-31
PC-3 = system: PC-3
SNB-75 = system: SNB-75

Row | Structure (SMILES) | GI50 (A549) | GI50 (BT-549) | GI50 (CAKI-1) | GI50 (HL-60) | GI50 (HOP-92) | GI50 (K562) | GI50 (LOX IMVI) | GI50 (MDA-MB-435) | GI50 (MOLT-4) | GI50 (Malme-3M) | GI50 (NCI-H460) | GI50 (OVCAR-5) | GI50 (SF-268) | GI50 (SK-MEL-2) | GI50 (SN12C) | GI50 (SW-620) | GI50 (U-251) | GI50 (UO-31) | GI50 (PC-3) | GI50 (SNB-75)
1 | COc1cc(C(=O)Nc2nnc(S(N)(=O)=O)s2)cc(OC)c1OC | > 100 µM (inactive) | > 100 µM (inactive) | > 100 µM (inactive) | > 100 µM (inactive) | 65.6 µM (inactive) | > 100 µM (inactive) | > 100 µM (inactive) | > 100 µM (inactive) | > 100 µM (inactive) | > 100 µM (inactive) | > 100 µM (inactive) | > 100 µM (inactive) | > 100 µM (inactive) | > 100 µM (inactive) | > 100 µM (inactive) | > 100 µM (inactive) | > 100 µM (inactive) | > 100 µM (inactive) | – | –
2 | COc1ccc(C2CC(c3ccccc3)=Nc3c(-c4ccccc4)nnn32)cc1 (configuration not stated) | 39.2 µM (inactive) | – | 98.4 µM (inactive) | > 100 µM (inactive) | – | > 100 µM (inactive) | > 100 µM (inactive) | 77.8 µM (inactive) | > 100 µM (inactive) | – | > 100 µM (inactive) | > 100 µM (inactive) | > 100 µM (inactive) | 44.4 µM (inactive) | > 100 µM (inactive) | > 100 µM (inactive) | 9.84 µM (inactive) | > 100 µM (inactive) | 72.6 µM (inactive) | –
3 | O=C(NC(C(F)(F)F)(C(F)(F)F)P(=O)(c1ccccc1)c1ccccc1)C(C(F)(F)F)C(F)(F)F | 34.6 µM (inactive) | – | 0.0131 µM (active) | 26.5 µM (inactive) | – | 33.6 µM (inactive) | 23.2 µM (inactive) | 18.7 µM (inactive) | 26.7 µM (inactive) | 14.2 µM (inactive) | 42.3 µM (inactive) | 34.2 µM (inactive) | 28.9 µM (inactive) | 40.6 µM (inactive) | 27.9 µM (inactive) | 40.6 µM (inactive) | 36.6 µM (inactive) | – | 27.8 µM (inactive) | 20.8 µM (inactive)
4 | COC(=O)N1C[C@@]2(C=CC3(CC2)OCCO3)c2ccccc21 | > 100 µM (inactive) | – | > 100 µM (inactive) | 11.2 µM (inactive) | 44.1 µM (inactive) | 48 µM (inactive) | > 100 µM (inactive) | 23.7 µM (inactive) | 58.3 µM (inactive) | – | 90.4 µM (inactive) | > 100 µM (inactive) | – | > 100 µM (inactive) | > 100 µM (inactive) | 40.8 µM (inactive) | 41.1 µM (inactive) | > 100 µM (inactive) | 63.7 µM (inactive) | 53.6 µM (inactive)
5 | CCOC(=O)C(=O)N/N=C1\C(=O)Nc2ccccc21 | > 100 µM (inactive) | > 100 µM (inactive) | > 100 µM (inactive) | – | – | > 100 µM (inactive) | > 100 µM (inactive) | > 100 µM (inactive) | > 100 µM (inactive) | > 100 µM (inactive) | > 100 µM (inactive) | > 100 µM (inactive) | > 100 µM (inactive) | > 100 µM (inactive) | > 100 µM (inactive) | > 100 µM (inactive) | > 100 µM (inactive) | > 100 µM (inactive) | > 100 µM (inactive) | > 100 µM (inactive)
6 | Cc1c(CN2CCOCC2)c(CN2CCOCC2)c(C)n1-c1ccc(Cl)cn1 | > 100 µM (inactive) | > 100 µM (inactive) | > 100 µM (inactive) | – | – | > 100 µM (inactive) | – | > 100 µM (inactive) | > 100 µM (inactive) | > 100 µM (inactive) | > 100 µM (inactive) | > 100 µM (inactive) | > 100 µM (inactive) | > 100 µM (inactive) | > 100 µM (inactive) | > 100 µM (inactive) | > 100 µM (inactive) | > 100 µM (inactive) | > 100 µM (inactive) | > 100 µM (inactive)
7 | CCOC(=O)/C(ON)=C(/CC/C(C(=O)OC)=C(\ON)C(=O)OCC)C(=O)OC | > 100 µM (inactive) | – | > 100 µM (inactive) | > 100 µM (inactive) | > 100 µM (inactive) | > 100 µM (inactive) | > 100 µM (inactive) | – | > 100 µM (inactive) | > 100 µM (inactive) | > 100 µM (inactive) | > 100 µM (inactive) | > 100 µM (inactive) | > 100 µM (inactive) | > 100 µM (inactive) | > 100 µM (inactive) | > 100 µM (inactive) | > 100 µM (inactive) | – | > 100 µM (inactive)
8 | C=C1C(=O)O[C@H]2C/C(C)=C/CC[C@]3(C)CCC[C@](C)(CC[C@@H]12)O3 | 16.6 µM (inactive) | – | 12 µM (inactive) | – | 6.46 µM (inactive) | 8.49 µM (inactive) | 12.2 µM (inactive) | 7.01 µM (inactive) | 6.71 µM (inactive) | – | 6.79 µM (inactive) | 13.7 µM (inactive) | 7.8 µM (inactive) | 8.51 µM (inactive) | 12.7 µM (inactive) | 7.71 µM (inactive) | 8.97 µM (inactive) | 8.69 µM (inactive) | 12.6 µM (inactive) | 11.9 µM (inactive)
9 | CCOP(=O)(OCC)[C@H](O)c1ccsc1 | > 100 µM (inactive) | > 100 µM (inactive) | > 100 µM (inactive) | – | – | > 100 µM (inactive) | > 100 µM (inactive) | > 100 µM (inactive) | > 100 µM (inactive) | > 100 µM (inactive) | > 100 µM (inactive) | > 100 µM (inactive) | > 100 µM (inactive) | > 100 µM (inactive) | > 100 µM (inactive) | > 100 µM (inactive) | > 100 µM (inactive) | > 100 µM (inactive) | > 100 µM (inactive) | > 100 µM (inactive)
10 | c1cc2cc(c1)CN1CCNCCN(CCNCC1)Cc1cccc(c1)CN1CCNCCN(CCNCC1)C2 | > 100 µM (inactive) | > 100 µM (inactive) | – | – | – | > 100 µM (inactive) | > 100 µM (inactive) | > 100 µM (inactive) | > 100 µM (inactive) | > 100 µM (inactive) | > 100 µM (inactive) | > 100 µM (inactive) | > 100 µM (inactive) | > 100 µM (inactive) | > 100 µM (inactive) | > 100 µM (inactive) | > 100 µM (inactive) | > 100 µM (inactive) | > 100 µM (inactive) | > 100 µM (inactive)
11 | COc1ccc(/C=C/c2nnc(S)[nH]2)cc1OC | > 100 µM (inactive) | – | > 100 µM (inactive) | > 100 µM (inactive) | > 100 µM (inactive) | > 100 µM (inactive) | > 100 µM (inactive) | – | > 100 µM (inactive) | > 100 µM (inactive) | > 100 µM (inactive) | > 100 µM (inactive) | > 100 µM (inactive) | > 100 µM (inactive) | > 100 µM (inactive) | > 100 µM (inactive) | > 100 µM (inactive) | > 100 µM (inactive) | – | > 100 µM (inactive)
12 | Cc1n[nH]c(=O)n1/N=C/c1ccncc1 | > 100 µM (inactive) | – | > 100 µM (inactive) | – | > 100 µM (inactive) | > 100 µM (inactive) | > 100 µM (inactive) | > 100 µM (inactive) | > 100 µM (inactive) | > 100 µM (inactive) | > 100 µM (inactive) | > 100 µM (inactive) | > 100 µM (inactive) | > 100 µM (inactive) | > 100 µM (inactive) | > 100 µM (inactive) | > 100 µM (inactive) | > 100 µM (inactive) | – | > 100 µM (inactive)
13 | O=C(O)C(NCc1ccccc1)C(NCc1ccccc1)C(=O)O (configuration not stated) | > 100 µM (inactive) | > 100 µM (inactive) | > 100 µM (inactive) | > 100 µM (inactive) | > 100 µM (inactive) | > 100 µM (inactive) | > 100 µM (inactive) | > 100 µM (inactive) | > 100 µM (inactive) | > 100 µM (inactive) | > 100 µM (inactive) | – | > 100 µM (inactive) | > 100 µM (inactive) | > 100 µM (inactive) | > 100 µM (inactive) | > 100 µM (inactive) | > 100 µM (inactive) | – | > 100 µM (inactive)
14 | COc1cc([N+](=O)[O-])c(S(=O)(=O)O)cc1NS(=O)(=O)c1ccc(C)cc1 | > 100 µM (inactive) | > 100 µM (inactive) | > 100 µM (inactive) | > 100 µM (inactive) | – | > 100 µM (inactive) | > 100 µM (inactive) | > 100 µM (inactive) | > 100 µM (inactive) | – | > 100 µM (inactive) | > 100 µM (inactive) | > 100 µM (inactive) | > 100 µM (inactive) | > 100 µM (inactive) | > 100 µM (inactive) | > 100 µM (inactive) | > 100 µM (inactive) | > 100 µM (inactive) | > 100 µM (inactive)
15 | O=C(NNCc1ccccc1O)c1ccccc1O | 8.13 µM (inactive) | – | 9.55 µM (inactive) | 0.495 µM (active) | 33 µM (inactive) | 3.3 µM (inactive) | 3.09 µM (inactive) | 3.06 µM (inactive) | 1.75 µM (inactive) | 15.1 µM (inactive) | – | 3.59 µM (inactive) | – | 4.65 µM (inactive) | 4.03 µM (inactive) | 3.48 µM (inactive) | 5.75 µM (inactive) | 1.92 µM (inactive) | 24.9 µM (inactive) | 21.9 µM (inactive)
16 | O=S(=O)(O)CCS [MESNA] | > 100 µM (inactive) | – | > 100 µM (inactive) | – | > 100 µM (inactive) | > 100 µM (inactive) | > 100 µM (inactive) | > 100 µM (inactive) | > 100 µM (inactive) | > 100 µM (inactive) | > 100 µM (inactive) | > 100 µM (inactive) | > 100 µM (inactive) | > 100 µM (inactive) | > 100 µM (inactive) | > 100 µM (inactive) | > 100 µM (inactive) | > 100 µM (inactive) | > 100 µM (inactive) | 39.7 µM (inactive)

Source: ChEMBL document CHEMBL1201862, “PubChem BioAssay data set” (2004)
